From BindingDB's records for doi:10.1021/jm0004906 (Glaxosmithkline, 2001)

Target: T1, Gag-Pol polyprotein [588-1027]/[588-1147] (Human immunodeficiency virus 1, UniProt P04585)
T1 construct: 588-1027; 588-1147
Assay: HIV-1 RT Assay
Settings: not given
From the text: The IC50 of reverse transcriptase is the concentration that inhibits 50% of recombinant HIV-1 RT RNA-directed DNA polymerase activity in vitro.

`N#Cc1c(N)cccc1[S+]([O-])c1ccccc1Br` (stereo not given) [2-amino-6-[(2-bromobenzene)sulfinyl]benzonitrile] and `Cc1ccccc1[S+]([O-])c1cccc(N)c1C#N` (stereo not given) [2-amino-6-[(2-methylbenzene)sulfinyl]benzonitrile] cannot be ordered by IC50: over 19 µM for the first, over 21 µM for the second.

`N#Cc1cccc([S+]([O-])c2cccc(N)c2C#N)c1` (stereo not given) [2-amino-6-[(3-cyanobenzene)sulfinyl]benzonitrile] and `N#Cc1ccc([S+]([O-])c2cccc(N)c2C#N)cc1` (stereo not given) [2-amino-6-[(4-cyanobenzene)sulfinyl]benzonitrile] cannot be ordered by IC50: over 15 µM for the first, over 23 µM for the second.

`N#Cc1c(N)cccc1[S+]([O-])c1ccc(Br)cc1` (stereo not given) [2-amino-6-[(4-bromobenzene)sulfinyl]benzonitrile] and `Cc1ccc([S+]([O-])c2cccc(N)c2C#N)cc1` (stereo not given) [2-amino-6-[(4-methylbenzene)sulfinyl]benzonitrile] cannot be ordered by IC50: over 21 µM for the first, over 21 µM for the second.

`N#Cc1c(N)cccc1S(=O)(=O)c1ccc(Br)cc1` [2-amino-6-[(4-bromobenzene)sulfonyl]benzonitrile] and `N#Cc1ccc(S(=O)(=O)c2cccc(N)c2C#N)cc1` [2-amino-6-[(4-cyanobenzene)sulfonyl]benzonitrile] cannot be ordered by IC50: over 14 µM for the first, over 18 µM for the second.

`COc1ccc([S+]([O-])c2cccc(N)c2C#N)cc1` (stereo not given) [2-amino-6-[(4-methoxybenzene)sulfinyl]benzonitrile] and `N#Cc1c(N)cccc1[S+]([O-])c1cccc(C(F)(F)F)c1` (stereo not given) [2-amino-6-{[3-(trifluoromethyl)benzene]sulfinyl}benzonitrile] cannot be ordered by IC50: over 20 µM for the first, over 22 µM for the second.

Same assay, conditions: pH 8

`N#Cc1c(N)cccc1Sc1ccccc1Br` [2-amino-6-[(2-bromophenyl)sulfanyl]benzonitrile] and `N#Cc1c(N)cccc1Sc1cccc(N)c1` [2-amino-6-[(3-aminophenyl)sulfanyl]benzonitrile] cannot be ordered by IC50: over 21 µM for the first, over 23 µM for the second.

`N#Cc1ccc(Sc2cccc(N)c2C#N)cc1` [2-amino-6-[(4-cyanophenyl)sulfanyl]benzonitrile] and `COc1ccc(Sc2cccc(N)c2C#N)cc1` [2-amino-6-[(4-methoxyphenyl)sulfanyl]benzonitrile] cannot be ordered by IC50: over 19 µM for the first, over 17 µM for the second.

In the case of `O=[N+]([O-])c1ccccc1Sc1ccccc1[N+](=O)[O-]` [Bisnitrophenylsulfide], the IC50 is reported as over 20 µM.
